Measured values reported in patent US9725430B2, “Use of small molecule inhibitors targeting EYA tyrosine phosphatase” (Children's Hospital Medical Center, priority 2013, dated 2017).

Legend:
retinal vasculature = test: Post-natal retinal angiogenesis in mice; format: in vivo
Protocol: Next, retinal blood vessel density and angiogenic extension were studied using induced deletion of Eya3 in mice by PDGFB-icreERT2 starting at the day of birth. Isolectin labeled retinal blood vessels at postnatal day 5 in control Eya3fl/fl (FIGS. 8b and 8d) and experimental Eya3fl/fl; PDGFB-icreERT2 (FIGS. […]) mice. FIGS. 8d and 8e are magnified images of the regions indicated in 8b and 8c, respectively.
Next, treatment with an inhibitor of Eya3 was performed to test the effect on post-natal retinal angiogenesis. Briefly, 100 μM of compound 1a was injected into the eyes of post-natal mice, at P0.5 and P3. P5 retinas were then analyzed for effects on the retinal vasculature.

EYA3-SIX2 interaction = EYA3-SIX2 interaction (Homo sapiens (Human), UniProt Q99504); test: His-SIX2 pull-down of EYA3 on Ni-NTA; format: binding; conditions: 50 μM compound, 15 minutes
Text: Each point represents the mean and standard deviation of two independent readings. (C) Plots of Vmax and Km as a function of inhibitor concentration. […] The mixture was loaded on a Ni-NTA column. Beads were washed with 3 column volumes of load buffer (last washes, lanes 2 and 6). Proteins retained on the beads are shown in lanes 3 and 7. Lanes 4 and 8 are molecular weight markers.
One function of the catalytic domain of the EYAs is to mediate its interaction with the SIX proteins. This complex then translocates to the nucleus where the SIX-EYA complex can activate transcription.

Sequence of EYA3-SIX2 interaction (Q99504 whole entry, looked up): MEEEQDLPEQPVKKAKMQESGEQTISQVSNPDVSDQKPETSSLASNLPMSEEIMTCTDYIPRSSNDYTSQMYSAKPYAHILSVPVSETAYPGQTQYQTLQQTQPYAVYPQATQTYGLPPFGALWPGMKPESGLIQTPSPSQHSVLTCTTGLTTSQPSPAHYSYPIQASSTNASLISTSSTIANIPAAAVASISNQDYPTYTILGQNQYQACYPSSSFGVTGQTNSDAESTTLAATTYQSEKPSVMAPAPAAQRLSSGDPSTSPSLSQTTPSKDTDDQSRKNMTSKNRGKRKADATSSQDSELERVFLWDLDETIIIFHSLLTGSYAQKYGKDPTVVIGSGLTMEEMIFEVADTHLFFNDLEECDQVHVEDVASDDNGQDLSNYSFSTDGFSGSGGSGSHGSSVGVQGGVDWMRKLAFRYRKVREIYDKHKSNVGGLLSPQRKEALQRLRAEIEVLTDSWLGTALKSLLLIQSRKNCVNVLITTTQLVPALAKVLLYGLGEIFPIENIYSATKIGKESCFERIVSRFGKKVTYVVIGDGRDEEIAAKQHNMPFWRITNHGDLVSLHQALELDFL
Sequence of EYA3-SIX2 interaction (Q9NPC8 whole entry partner, looked up): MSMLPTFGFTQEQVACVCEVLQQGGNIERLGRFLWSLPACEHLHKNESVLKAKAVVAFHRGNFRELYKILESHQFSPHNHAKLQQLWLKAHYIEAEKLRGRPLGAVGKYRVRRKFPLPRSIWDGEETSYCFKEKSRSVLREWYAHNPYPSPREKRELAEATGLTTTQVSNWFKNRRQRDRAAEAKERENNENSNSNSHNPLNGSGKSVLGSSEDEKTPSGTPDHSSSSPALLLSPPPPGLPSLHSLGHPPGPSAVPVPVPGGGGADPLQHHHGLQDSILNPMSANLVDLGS

| EYA3-SIX2 interaction in presence of inhibitor (EYA3-SIX2 interaction) | Compound | retinal vasculature branch points (retinal vasculature; 100 μM injected into eyes at P0.5 and P3, P5 retinas) | retinal angiogenesis in VEC-specific Eya3 knockout model (retinal vasculature; normal oxygen conditions) |
| --- | --- | --- | --- |
|  | CCc1oc2ccccc2c1C(=O)c1ccc(O)cc1 [Compound 1a] | quantifiable decrease in branch points | additional significant reduction in retinal angiogenesis |
| unaffected | CCc1oc2ccccc2c1C(=O)c1cc(Br)c(O)c(Br)c1 [Compound 1, Benzbromarone, reference compound] |  |  |
